Earlier results, collected in patent US20180030541A1, “METHOD FOR PREDICTING SENSITIVITY TO VASCULAR ENDOTHELIAL GROWTH FACTOR RECEPTOR INHIBITOR” (CBSBIOSCIENCE INC., priority 2014, published 2018).

Test system: hepatocellular carcinoma
Conditions: drug approved for treating hepatocellular carcinoma; cancer patients

CNC(=O)c1cc(Oc2ccc(NC(=O)Nc3ccc(Cl)c(C(F)(F)F)c3)cc2)ccn1 [Nexavar, Sorafenib]
side effects: very high
treatment rate: 2-3%
